These results are taken from patent US20060264402A1, “Pest control formulation” (Redline, Inc., priority 2003, published 2006).

The structures appear in SMILES notation.

For this data set, the system named is human skin. The data set is described as follows: Parasthesia irritation screening: one-gram drop placed on human skin, Parasthesia Irritation Rating (PIR). In kind it is in vivo. Further details: key: 0 = no discomfort, 4 = slight, 8 = noticeable, 12 = severe. As for the experimental part:
1. Different ratios of active ingredient to IDPP are prepared for evaluation.
2. A one-gram drop of the ratio is placed on human skin. Only one drop is evaluated within a 24-hour period.
3. Irritation or sensitivity values are assigned according to the following scale (“Parasthesia Irritation Rating” or “PIR”): • 12=Severe • 8 =Noticeable discomfort • 4 =Slight discomfort • 0=No discomfort
4. If irritation is severe or noticeable at any time within a 24-hour period, the skin is washed and 5% lidocaine solution is applied to lessen discomfort.

The mark [1] stands for this setting: ratio active agent:IDPP 0.67:1.00, within 24-hour period.

With `CC1(C)C(C=C(Cl)Cl)C1C(=O)OC(C#N)c1cccc(Oc2ccccc2)c1` (stereo not shown) [Cypermethrin], the “Parasthesia Irritation Rating” value is, setting by setting: (ratio active agent:IDPP 0.18:1.00, within 24-hour period) 0.00; (ratio active agent:IDPP 0.21:1.00, within 24-hour period) 0.00; (ratio active agent:IDPP 0.25:1.00, within 24-hour period) 4.00; (ratio active agent:IDPP 0.33:1.00, within 24-hour period) 12.00; (ratio active agent:IDPP 0.43:1.00, within 24-hour period) 12.00; under setting [1], 12.00.
Turning to `CC(C)=CC1C(C(=O)OC(C#N)c2cccc(Oc3ccccc3)c2)C1(C)C` (stereo not shown) [Cyphenothrin], the “Parasthesia Irritation Rating” value (active agent 1.00 without IDPP (—), within 24-hour period) is recorded as 12.00; the “Parasthesia Irritation Rating” value under setting [1] was found to be 0.00; the “Parasthesia Irritation Rating” value (ratio active agent:IDPP 1.00:1.00, within 24-hour period) is 0.00; the “Parasthesia Irritation Rating” value (ratio active agent:IDPP 1.50:1.00, within 24-hour period) was found to be 4.00.
